Results: US9790169B2, “IDO inhibitors” (BRISTOL-MYERS SQUIBB COMPANY, priority 2015, dated 2017)

biological target: human IDO1 (Homo sapiens, UniProt P14902); experiment: Assessment of human IDO-1 inhibitory activity in HEK cells (human IDO1/HEK293 cells, kynurenine read-out with Ehrlich reagent, absorbance 490 nm); type: cell-based; design: expressed in transfected cells; settings: HEK Human IDO-1 cellular assay
Experimental: Exemplary compounds were tested for inhibition of IDO activity.
Assessment of Human IDO-1 Inhibitory Activity in HEK Cells
HEK293 cells were transfected with a pCDNA-based mammalian expression vector harboring human IDO1 cDNA (NM 002164.2) by electroporation. They were cultured in medium (DMEM with 10% FBS) containing 1 mg/ml G418 for two weeks. Clones of HEK293 cells that stably expressed human IDO1 protein were selected and expanded for IDO inhibition assay.
The human IDO1/HEK293 cells were seeded at 10,000 cells per 50 μL per well with RPMI/phenol red free media contains 10% FBS in a 384-well black wall clear bottom tissue culture plate (Matrix Technologies LLC) 100 nL of certain concentration of compound was then added to each well using ECHO liquid handling systems. The cells were incubated for 20 hours in 37° C. incubator with 5% CO2.
The compound treatments were stopped by adding trichloroacetic acid (Sigma-Aldrich) to a final concentration at 0.2%. The cell plate was further incubated at 50° C. for 30 minute. The equal volume supernatant (20 μL) and 0.2% (w/v) Ehrlich reagent (4-dimethylaminobenzaldehyde, Sigma-Aldrich) in glacial acetic acid were mixed in a new clear bottom 384-well plate. This plate was then incubated at room temperature for 30 minute. The absorbance at 490 nm was measured on Envision plate reader.
Compound IC50 values were calculated using the counts of 500 nM of a reference standard treatment as one hundred percent inhibition, and counts of no compound but DMSO treatment as zero percent inhibition.

Chain of human IDO1 (P14902 whole entry): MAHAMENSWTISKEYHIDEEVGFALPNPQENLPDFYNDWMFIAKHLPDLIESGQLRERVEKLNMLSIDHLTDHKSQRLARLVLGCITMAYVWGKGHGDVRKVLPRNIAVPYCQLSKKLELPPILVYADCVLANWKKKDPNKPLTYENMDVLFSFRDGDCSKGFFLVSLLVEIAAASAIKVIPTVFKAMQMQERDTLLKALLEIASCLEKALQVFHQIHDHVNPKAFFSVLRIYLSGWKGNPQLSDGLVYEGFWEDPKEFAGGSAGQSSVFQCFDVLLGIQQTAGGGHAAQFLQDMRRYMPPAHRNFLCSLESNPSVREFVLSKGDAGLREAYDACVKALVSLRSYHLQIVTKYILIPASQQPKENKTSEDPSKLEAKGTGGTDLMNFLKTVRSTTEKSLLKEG

Q: For CCC(CC(=O)O)c1ccc(N2CCC[C@H]2C(C)(C)O)c(Nc2ccnc(N3CCOCC3)n2)c1 (single isomer, unassigned) [Example 817], which IC50 is on record?
A: > 50 nM

Q: How did the IC50 turn out when COCC(CC(=O)O)c1ccc(N(CC(C)C)C2CCCCC2)c(NC(=O)Nc2cc(C)on2)c1 (single isomer, unassigned) [987-1] was run?
A: < 50 nM

Q: Which IC50 does the source give for CCN(c1ccc(C(CC(=O)O)c2ccccc2)cc1NC(=O)Nc1ccc(Cl)cc1F)C1CCOCC1 (single isomer, unassigned) [Example 595, 3-(3-(3-(4-chloro-2-fluorophenyl)ureido)-4-(ethyl(tetrahydro-2H-pyran-4-yl)amino)phenyl)-3-phenylpropanoic acid] here?
A: > 50 nM

Q: With CCc1ccc(Nc2cc([C@@H](CC)CC(=O)O)ccc2N(CC)C2CCOCC2)cc1 (single isomer, unassigned) [Example 477] as the molecule, how does the IC50 read?
A: < 5 nM

Q: For CCC(CC(=O)O)c1ccc(N2CCC[C@H]2C(C)(C)F)c(NC(=O)Nc2ccc(C)cc2)c1 (single isomer, unassigned) [Example 792], which IC50 is on record?
A: > 50 nM

Q: Which IC50 does the source give for CCC(CC(=O)O)c1ccc(N(CC(C)C)C2CCCCC2)c(Nc2ccc(Cl)c(F)c2)c1 (single isomer, unassigned) [Example 310, 3-(3-((4-chloro-3-fluorophenyl)amino)-4-(cyclohexyl(isobutyl)amino)phenyl)pentanoic acid] here?
A: < 5 nM

Q: CCN(c1ccc(C(C)CC(=O)O)cc1NC(=O)Nc1ccc(C)cc1)C1CCOCC1 (single isomer, unassigned) [Example 639, 3-(4-(ethyl(tetrahydro-2H-pyran-4-yl)amino)-3-(3-(p-tolyl)ureido)phenyl)butanoic acid] was tested. Which IC50 did it give?
A: < 50 nM

Q: Which IC50 does the source give for CCN(c1ccc([C@H](COC)CC(=O)O)cc1NC(=O)Nc1ccc(OC(F)F)cc1)C1CCOCC1 (single isomer, unassigned) [Example 436] here?
A: > 50 nM

Q: CCOc1ccc(Nc2cc(C(C)CC(=O)O)ccc2N(CC(C)(C)O)C2CCCCC2)c(F)c1 (single isomer, unassigned) [Example 56, 3-(4-(cyclohexyl(2-hydroxy-2-methylpropyl)amino)-3-((4-ethoxy-2-fluorophenyl)amino)phenyl)butanoic acid] was tested. Which IC50 did it give?
A: < 50 nM

Q: CCC(CC(=O)O)c1ccc(N2CCOC[C@H]2C(C)C)c(Nc2ccc3nc(C)sc3c2)c1 (single isomer, unassigned) [Example 892] was tested. Which IC50 did it give?
A: < 50 nM

Q: With CCC(CC(=O)O)c1cc(NC(=O)Nc2ccc3c(c2)OCO3)c(N(CC(C)C)C2CCCCC2)cc1F (single isomer, unassigned) [Example 1111, 3-(5-(3-(Benzo[d][1,3]dioxol-5-yl)ureido)-4-(cyclohexyl(isobutyl)amino)-2-fluorophenyl)pentanoic acid] as the molecule, how does the IC50 read?
A: < 5 nM

Q: COCC(CC(=O)O)c1ccc(N(CC(C)C)CC(C)C)c(NC(=O)Nc2ccc(Cl)cc2F)c1 (single isomer, unassigned) [995-1] was tested. Which IC50 did it give?
A: < 5 nM

Q: Which IC50 does the source give for CCOc1ncc(Nc2cc([C@@H](CC)CC(=O)O)ccc2N(CC2CC2)CC(C)(C)O)cn1 (single isomer, unassigned) [Example 270] here?
A: > 50 nM

Q: Cc1ccc(CC(=O)Nc2cc(C(C)CC(=O)O)ccc2N(CC(C)C)CC(C)C)cc1 (single isomer, unassigned) [Example 954, 3-(4-(Diisobutylamino)-3-(2-(p-tolyl)acetamido)phenyl)butanoic acid] was tested. Which IC50 did it give?
A: < 50 nM

Q: Which IC50 does the source give for COCC(CC(=O)O)c1ccc(N(CC(C)C)C2CCCCC2)c(NC(=O)Nc2ccc(Cl)cc2F)c1 (racemic) [Example 984, (+/−)-3-(3-(3-(4-Chloro-2-fluorophenyl)ureido)-4-(cyclohexyl(isobutyl)amino)phenyl)-4-methoxybutanoic acid] here?
A: < 5 nM

Q: Which IC50 does the source give for CCC(CC(=O)O)c1ccc(N2CCC[C@@H]2C(C)(C)O)c(Nc2ccc(F)cc2)c1 (single isomer, unassigned) [Example 784] here?
A: > 50 nM

Q: Which IC50 does the source give for CCC(CC(=O)O)c1ccc(N2CCC[C@H]2C(C)(C)O)c(NC(=O)Nc2cc(C)on2)c1 (single isomer, unassigned) [Example 815] here?
A: > 50 nM

Q: Which IC50 does the source give for CCC(CC(=O)O)c1ccc(N(CC(C)C)C(C)C)c(Nc2ccc3nc(C)sc3c2)c1 (single isomer, unassigned) [Example 729, 3-(4-(isobutyl(isopropyl)amino)-3-((2-methylbenzo[d]thiazol-6-yl)amino)phenyl)pentanoic acid] here?
A: > 50 nM

Q: CCN(c1ccc(C(C)CC(=O)O)cc1NC(=O)Nc1ccc(C)cc1)C1CCOCC1 (single isomer, unassigned) [Example 641, 3-(4-(ethyl(tetrahydro-2H-pyran-4-yl)amino)-3-(3-(p-tolyl)ureido)phenyl)butanoic acid] was tested. Which IC50 did it give?
A: > 50 nM

Q: How did the IC50 turn out when C[C@@H]1CN(c2ccc(C(C)(C)CC(=O)O)cc2Nc2ccc(Cl)cc2)C[C@H](C)O1 [Example 733, 3-(3-((4-chlorophenyl)amino)-4-((2S,6R)-2,6-dimethylmorpholino)phenyl)-3-methylbutanoic acid] was run?
A: < 50 nM

Q: Which IC50 does the source give for CCN(c1ccc(C(C)CC(=O)O)cc1Nc1cnc(OCC2CC2)nc1)C1CCOCC1 (single isomer, unassigned) [Example 614, 3-(3-((2-(cyclopropylmethoxy)pyrimidin-5-yl)amino)-4-(ethyl(tetrahydro-2H-pyran-4-yl)amino)phenyl)butanoic acid] here?
A: < 50 nM

Q: For CCC(CC(=O)O)c1ccc(N2CCOC[C@H]2C(C)C)c(Nc2ccc(F)cc2)c1 (single isomer, unassigned) [Example 901], which IC50 is on record?
A: < 5 nM

Q: With CC[C@@H](CC(=O)O)c1ccc(N(CC)C2CCOCC2)c(Nc2ccc3nncn3c2)c1 (single isomer, unassigned) [Example 471] as the molecule, how does the IC50 read?
A: > 50 nM

Q: For CCOc1ccc(CC(=O)Nc2cc(C(COC)CC(=O)O)ccc2N(CC(C)C)C2CCCCC2)cc1 (single isomer, unassigned) [Example 1241, 3-(4-(Cyclohexyl(isobutyl)amino)-3-(2-(4-ethoxyphenyl)acetamido)phenyl)-4-methoxybutanoic acid], which IC50 is on record?
A: < 50 nM

Q: For CCOc1ccc(NC(=O)Nc2cc(C(COC)CC(=O)O)cc(F)c2N(CC(C)C)C2CCCCC2)cc1 (single isomer, unassigned) [Example 1160, 3-(4-(cyclohexyl(isobutyl)amino)-3-(3-(4-ethoxyphenyl)ureido)-5-fluorophenyl)-4-methoxybutanoic acid], which IC50 is on record?
A: < 5 nM

Q: How did the IC50 turn out when CCN(c1ccc(C(CC(=O)O)C2CC2)cc1Nc1ccc(C#N)cc1)C1CCOCC1 (single isomer, unassigned) [Example 37, 3-(3-((4-cyanophenyl)amino)-4-(ethyl(tetrahydro-2H-pyran-4-yl)amino)phenyl)-3-cyclopropylpropanoic acid] was run?
A: < 5 nM

Q: Which IC50 does the source give for CC[C@@H](CC(=O)O)c1ccc(N(CC)C2CCOCC2)c(Nc2ccc(Cl)c(OC)c2)c1 (single isomer, unassigned) [Example 481] here?
A: < 5 nM

Q: For CCC(CC(=O)O)c1ccc(N(CC)C2CCCOC2)c(NC(=O)Nc2ccc(C)cc2)c1 (single isomer, unassigned) [Example 73 D1, 3-(4-(Ethyl(tetrahydro-2H-pyran-3-yl)amino)-3-(3-(p-tolyl)ureido)phenyl)pentanoic acid], which IC50 is on record?
A: < 5 nM

Q: How did the IC50 turn out when CCC(CC(=O)O)c1cc(F)c(N(CC(C)C)CC(C)C)c(NC(=O)Cc2ccc(C)cc2)c1 (single isomer, unassigned) [980-1] was run?
A: < 5 nM

Q: With CCCN(c1ccc([C@@H](COC)CC(=O)O)cc1Nc1ccc(Cl)cc1)C1CCOCC1 (single isomer, unassigned) [Example 564] as the molecule, how does the IC50 read?
A: < 5 nM

Q: How did the IC50 turn out when COCC(CC(=O)O)c1cc(F)c(N(CC(C)C)C2CCCCC2)c(NC(=O)Cc2ccc(Cl)cc2F)c1 (single isomer, unassigned) [Example 1172, 3-(3-(2-(4-chloro-2-fluorophenyl)acetamido)-4-(cyclohexyl(isobutyl)amino)-5-fluorophenyl)-4-methoxybutanoic acid] was run?
A: < 50 nM

Q: Which IC50 does the source give for COCC(CC(=O)O)c1cc(F)c(N(CC(C)C)C2CCCCC2)c(NC(=O)Cc2cc(C)on2)c1 (single isomer, unassigned) [Example 1169, 3-(4-(cyclohexyl(isobutyl)amino)-3-fluoro-5-(2-(5-methylisoxazol-3-yl)acetamido)phenyl)-4-methoxybutanoic acid] here?
A: > 50 nM

Q: With COCC(CC(=O)O)c1ccc(N(CC(C)C)C2CCOCC2)c(NC(=O)Nc2cc(C)on2)c1 (single isomer, unassigned) [Example 1213, 3-(4-(Isobutyl(tetrahydro-2H-pyran-4-yl)amino)-3-(3-(5-methylisoxazol-3-yl)ureido)phenyl)-4-methoxybutanoic acid] as the molecule, how does the IC50 read?
A: > 50 nM

Q: CCC(CC(=O)O)c1ccc(N(CC(C)C)CC(C)C)c(NC(=O)Cc2ccc(C)cc2)c1 (racemic) [Example 949, (+/−)-3-(4-(Diisobutylamino)-3-(2-(p-tolyl)acetamido)phenyl)pentanoic acid] was tested. Which IC50 did it give?
A: < 5 nM

Q: With CCC(CC(=O)O)c1cc(NC(=O)Nc2cncnc2)c(N(CC(C)C)C2CCCCC2)cc1F (racemic) [Example 1122, (±)-3-(4-(cyclohexyl(isobutyl)amino)-2-fluoro-5-(3-(pyrimidin-5-yl)ureido)phenyl)pentanoic acid] as the molecule, how does the IC50 read?
A: < 5 nM
